{"source": "ChEMBL document CHEMBL4138125", "about": "“Recent advances in discovery and development of natural products as source for anti-Parkinson's disease lead compounds” (2017)", "type_in_all_cases": "functional", "key": {"[1]": {"assay": "Neuroprotective activity in OF1/SPF […] brain dopaminergic neurons assessed as suppression of MPP+-induced cell death at 0.1 to 10 uM pre-incubated for 4 days tarting from day 8 before MPP+ challenge for 48 hrs"}, "[2]": {"assay": "Neuroprotective activity in OF1/SPF […] brain dopaminergic neurons assessed as suppression of short-term rotenone -induced cell death at 0.1 to 10 uM pre-incubated for 4 days starting from day 8 before rotenone challenge for 48 hrs"}, "[3]": {"assay": "Neuroprotective activity in OF1/SPF […] brain dopaminergic neurons assessed as suppression of long-term rotenone-induced cell death at 0.1 to 10 uM incubated concomitantly with rotenone from days 6 to 12"}}, "data": [{"smiles": "CC1=CC(=O)C(C(C)C)=CC1=O", "note": "[THYMOQUINONE]", "values": [{"measurement": "Activity", "setting": "[1]", "result": 40, "unit": "%"}, {"measurement": "Activity", "setting": "[2]", "result": 33, "unit": "%"}, {"measurement": "Activity", "setting": "[3]", "result": 24, "unit": "%"}]}]}
